The text below walks through data of patent publication US6541193B2, “Screening the activity of drugs for central nervous system (CNS)” (Council of Scientific & Industrial Research, priority 2001, dated 2003).

This test deals with Sh^5eag^1 mutant flies. Description: Recovery time from diethyl ether anesthesia in flies fed drug in food. The test is classed as in vivo, Drosophila melanogaster. The note with it: Sh^5eag^1 males. How it is done: Standard Drosophila manipulation methods were followed. Cultures were grown on a medium containing maize powder, sugar, yeast and Nipagin. Flies were maintained and further manipulated at room temperature. Experimental conditions were kept identical. The double mutant Sh^5eag^1 was generated using standard methods of Drosophila genetics.
Equal number of Sh^5eag^1 males, varying in age between 6-9 days, were treated in 25×100 mm glass vials with either normal food (NF) or food containing 1 mg/ml of phenobarbital sodium (PS; NF+PS) for 5 days. Twenty males were treated in each vial. Flies were first anesthesized with ether and healthy looking individuals shifted to 10 empty vials in such a way that each vial received two flies, one from each treatment. Before shifting, flies from one of the two treatments were marked on their wings for the purpose of identification. Flies were allowed to recover fully. After an hour, each fly pair was subjected to the following test one by one. The two flies, inside a vial with 800 mg of cotton plug, were simultaneously anesthetized by pouring 0.2 ml of diethyl ether on to the plug. After about 1.5 min, during which the vial was gently shaken continuously so that the flies remained at the bottom throughout, the two individuals were immediately shifted to two fresh empty vials. Time at this point was considered 0 min. […]

Consider `CCC1(c2ccccc2)C(=O)NC(=O)NC1=O` [PS, phenobarbital sodium], for which the “effect on recovery from ether anesthesia” value (1 mg/ml in food for 5 days, vs normal food) is on record as “delays recovery from ether anesthesia”. The “recovery time (time to first stand up on legs after etherisation)” value (food containing 1 mg/ml for 5 days, diethyl ether anesthesia, NF control 2.4±0.44 min, p<0.02) was 7.2 ± 1.78 min.
